Experiment: Maxima of UV-A and UV-B absorption of quinoxaline derivatives in 2-propanol
Assay type: physicochemical
Details: 1 mg of substance per 100 ml of solvent
Procedure: The measurement was carried out in 2-propanol at a concentration of 1 mg of substance per 100 ml of solvent.

O=C(/C=C/c1ccccc1)c1cnc2ccccc2n1
UV-A (400 320 nm) Max. abs. (absorbance at UV-A maximum): 0.1731 | UV-A (400 320 nm) λ [nm] (wavelength of UV-A maximum): 329.0 nm

O=c1[nH]c2ccccc2nc1/C=C/C=C/c1ccccc1
UV-B (280 320 nm) Max. abs. (absorbance at UV-B maximum): 0.6004 | UV-B (280 320 nm) λ [nm] (wavelength of UV-B maximum): 281.5 nm

From patent US20030207886A1, “Preparation containing quinoxaline derivatives” (priority 2000, published 2003)
